{"source": "paper PMC10035947", "about": "“Development of novel anilinoquinazoline-based carboxylic acids as non-classical carbonic anhydrase IX and XII inhibitors” (Journal of Enzyme Inhibition and Medicinal Chemistry, 2023)", "key": {"[1]": {"system": "NCI/ADR-RES", "assay": "NCI SRB assay", "type": "cell-based, human"}, "[2]": {"system": "MDA-MB-435", "assay": "NCI SRB assay", "type": "cell-based"}, "[3]": {"system": "KM12", "assay": "NCI SRB assay", "type": "cell-based, human"}, "[4]": {"system": "OVCAR-8", "assay": "NCI SRB assay", "type": "cell-based, human"}, "[5]": {"system": "SN12C", "assay": "NCI SRB assay", "type": "cell-based, human", "settings": "SN12C"}, "[6]": {"system": "SF-295", "assay": "NCI SRB assay", "type": "cell-based, human"}, "[7]": {"system": "HOP-92", "assay": "NCI SRB assay", "type": "cell-based, human"}, "[8]": {"target": "T1, hCA I (Homo sapiens, UniProt P00915)", "T1 construct": "made in house", "assay": "stopped flow CO2 hydrase assay", "type": "biochemical", "settings": "mean from 3 assays", "procedure": "(§1) Carbonic anhydrase inhibition assay\n(§2) The carbonic anhydrase catalyzed CO2 hydration actions for the quinazoline-based […]\n(§3) Photophysics stopped-flow, as described previously. The enzymes are recombinant proteins prepared in our lab. Phenol red (at a concentration of 0.2 mM) has been used as indicator, working at the absorbance maximum of 557 nm, with 20 mM Hepes (pH 7.5) as buffer, and 20 mM Na2SO4 (for maintaining constant the ionic strength), following the initial rates of the CA- […]\n(§4) 1.7 to 17 mM for the determination of the kinetic parameters and inhibition constants. For each […]\n(§5) initial velocity. The uncatalyzed rates were determined in the same manner and subtracted from the total observed rates. Stock solutions of inhibitor (0.1 mM) were prepared in distilled-deionized water and dilutions up to 0.01 nM were done thereafter with the assay buffer. Inhibitor and enzyme solutions were preincubated together for 15 min at room temperature prior to assay, in order to allow for the formation of the E-I complex. The inhibition constants were obtained by non-linear least-squares methods using PRISM 3 and the Cheng-Prusoff equation, and represent the mean from at least three different determinations."}, "[9]": {"target": "T2, hCA IX (Homo sapiens, UniProt Q16790)", "T2 construct": "made in house", "assay": "stopped flow CO2 hydrase assay", "type": "biochemical", "procedure": "as §1, §2, §3, §4, §5"}, "[10]": {"target": "T3, hCA XII (Homo sapiens, UniProt O43570)", "T3 construct": "made in house", "T3 sequence (O43570 25-354)": "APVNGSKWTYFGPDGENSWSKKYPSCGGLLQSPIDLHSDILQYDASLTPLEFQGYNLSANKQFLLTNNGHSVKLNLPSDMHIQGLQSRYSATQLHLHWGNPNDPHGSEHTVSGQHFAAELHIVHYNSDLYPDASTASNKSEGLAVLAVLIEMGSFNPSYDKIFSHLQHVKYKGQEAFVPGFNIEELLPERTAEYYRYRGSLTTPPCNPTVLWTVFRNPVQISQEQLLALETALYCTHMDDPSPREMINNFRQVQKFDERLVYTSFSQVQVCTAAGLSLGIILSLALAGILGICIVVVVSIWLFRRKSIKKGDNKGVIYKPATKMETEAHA", "assay": "stopped flow CO2 hydrase assay", "type": "biochemical", "procedure": "as §1, §2, §3, §4, §5"}, "[11]": {"system": "59 human cancer cell lines representing nine tumour subpanels", "assay": "NCI SRB assay, panel and subpanel summaries", "settings": "all cell lines"}, "[12]": {"system": "HT29", "assay": "NCI SRB assay", "type": "cell-based, human"}, "[13]": {"system": "NCI-H322M", "assay": "NCI SRB assay", "type": "cell-based, human"}, "[14]": {"system": "SK-MEL-28", "assay": "NCI SRB assay", "type": "cell-based, human"}, "[15]": {"system": "HS 578 T", "assay": "NCI SRB assay", "type": "cell-based, human"}, "[16]": {"system": "SF-268", "assay": "NCI SRB assay", "type": "cell-based, human", "settings": "SF-268, 1.00E-5 Molar"}, "[17]": {"system": "MALME-3M", "assay": "NCI SRB assay", "type": "cell-based, human"}, "[18]": {"system": "K-562", "assay": "NCI SRB assay", "type": "cell-based, human"}, "[19]": {"system": "SNB-19", "assay": "NCI SRB assay", "type": "cell-based, human"}, "[20]": {"system": "NCI-H226", "assay": "NCI SRB assay", "type": "cell-based, human"}, "[21]": {"system": "PC-3", "assay": "NCI SRB assay", "type": "cell-based, human"}, "[22]": {"system": "SK-MEL-5", "assay": "NCI SRB assay", "type": "cell-based, human"}, "[23]": {"system": "RPMI-8226", "assay": "NCI SRB assay", "type": "cell-based, human"}, "[24]": {"system": "SK-MEL-2", "assay": "NCI SRB assay", "type": "cell-based, human"}, "[25]": {"system": "HCT-116", "assay": "NCI SRB assay", "type": "cell-based, human"}, "[26]": {"system": "OVCAR-3", "assay": "NCI SRB assay", "type": "cell-based, human"}, "[27]": {"system": "DU-145", "assay": "NCI SRB assay", "type": "cell-based, human"}}}
{"smiles": "Cc1cccc(-c2nc(Nc3ccccc3C(=O)O)c3ccccc3n2)c1", "note": "[6a, 2-((2-(m-Tolyl)quinazolin-4-yl)amino)benzoic acid]", "values": [{"measurement": "GI%", "setting": "[1]; 10 μM", "value": 75, "unit": "%"}, {"measurement": "Growth Percent", "setting": "[1]; 1.00E-5 Molar", "value": 24.78, "unit": "%"}, {"measurement": "GI%", "setting": "[2]; MDA-MB-435, 10 μM", "value": 55, "unit": "%"}, {"measurement": "Growth Percent", "setting": "[2]; MDA-MB-435, 1.00E-5 Molar", "value": 44.63, "unit": "%"}, {"measurement": "GI%", "setting": "[3]; KM12, 10 μM", "value": 70, "unit": "%"}, {"measurement": "Growth Percent", "setting": "[3]; KM12, 1.00E-5 Molar", "value": 29.97, "unit": "%"}, {"measurement": "GI%", "setting": "[4]; OVCAR-8, 10 μM", "value": 40, "unit": "%"}, {"measurement": "Growth Percent", "setting": "[4]; OVCAR-8, 1.00E-5 Molar", "value": 60.34, "unit": "%"}, {"measurement": "GI%", "setting": "[5]; 10 μM", "value": 59, "unit": "%"}, {"measurement": "Growth Percent", "setting": "[5]; 1.00E-5 Molar", "value": 40.74, "unit": "%"}, {"measurement": "GI%", "setting": "[6]; SF-295, 10 μM", "value": 73, "unit": "%"}, {"measurement": "Growth Percent", "setting": "[6]; SF-295, 1.00E-5 Molar", "value": 27.07, "unit": "%"}, {"measurement": "GI%", "setting": "[7]; HOP-92, 10 μM", "value": 105, "unit": "%"}, {"measurement": "Growth Percent", "setting": "[7]; HOP-92, 1.00E-5 Molar", "value": -5.02, "unit": "%"}, {"measurement": "Ki", "setting": "[8]", "value": "> 100", "unit": "µM"}, {"measurement": "Selectivity ratio I/IX", "setting": "[9]; KI hCA I / KI hCA IX", "value": 2.4}, {"measurement": "Selectivity ratio II/IX", "setting": "[9]; KI hCA II / KI hCA IX", "value": 2.00}, {"measurement": "Ki", "setting": "[9]; mean from 3 assays", "value": 42.5, "unit": "µM"}, {"measurement": "Selectivity ratio I/XII", "setting": "[10]; KI hCA I / KI hCA XII", "value": 11.1}, {"measurement": "Selectivity ratio II/XII", "setting": "[10]; KI hCA II / KI hCA XII", "value": 9.47}, {"measurement": "Ki", "setting": "[10]; mean from 3 assays", "value": 9, "unit": "µM"}, {"measurement": "Mean GI %", "setting": "[11]; 10 μM", "value": 63, "unit": "%"}, {"measurement": "Mean Growth Percent", "setting": "[11]; 1.00E-5 Molar", "value": 37.30, "unit": "%"}, {"measurement": "GI%", "setting": "[12]; HT29, 10 μM", "value": 60, "unit": "%"}, {"measurement": "Growth Percent", "setting": "[12]; HT29, 1.00E-5 Molar", "value": 39.66, "unit": "%"}, {"measurement": "GI%", "setting": "[13]; 10 μM", "value": 52, "unit": "%"}, {"measurement": "Growth Percent", "setting": "[13]; 1.00E-5 Molar", "value": 48.74, "unit": "%"}, {"measurement": "GI%", "setting": "[14]; SK-MEL-28, 10 μM", "value": 50, "unit": "%"}, {"measurement": "Growth Percent", "setting": "[14]; SK-MEL-28, 1.00E-5 Molar", "value": 49.95, "unit": "%"}, {"measurement": "GI%", "setting": "[15]; HS 578 T, 10 μM", "value": 84, "unit": "%"}, {"measurement": "Growth Percent", "setting": "[15]; HS 578T, 1.00E-5 Molar", "value": 16.61, "unit": "%"}, {"measurement": "Growth Percent", "setting": "[16]", "value": 37.50, "unit": "%"}, {"measurement": "GI%", "setting": "[17]; 10 μM", "value": 63, "unit": "%"}, {"measurement": "Growth Percent", "setting": "[17]; 1.00E-5 Molar", "value": 37.17, "unit": "%"}, {"measurement": "GI%", "setting": "[18]; K-562, 10 μM", "value": 71, "unit": "%"}, {"measurement": "Growth Percent", "setting": "[18]; K-562, 1.00E-5 Molar", "value": 28.68, "unit": "%"}, {"measurement": "GI%", "setting": "[19]; SNB-19, 10 μM", "value": 79, "unit": "%"}, {"measurement": "Growth Percent", "setting": "[19]; SNB-19, 1.00E-5 Molar", "value": 21.25, "unit": "%"}, {"measurement": "GI%", "setting": "[20]; NCI-H226, 10 μM", "value": 64, "unit": "%"}, {"measurement": "Growth Percent", "setting": "[20]; NCI-H226, 1.00E-5 Molar", "value": 36.13, "unit": "%"}, {"measurement": "GI%", "setting": "[21]; PC-3, 10 μM", "value": 71, "unit": "%"}, {"measurement": "Growth Percent", "setting": "[21]; PC-3, 1.00E-5 Molar", "value": 29.47, "unit": "%"}, {"measurement": "GI%", "setting": "[22]; SK-MEL-5, 10 μM", "value": 94, "unit": "%"}, {"measurement": "Growth Percent", "setting": "[22]; SK-MEL-5, 1.00E-5 Molar", "value": 6.01, "unit": "%"}, {"measurement": "GI%", "setting": "[23]; RPMI-8226, 10 μM", "value": 71, "unit": "%"}, {"measurement": "Growth Percent", "setting": "[23]; RPMI-8226, 1.00E-5 Molar", "value": 28.59, "unit": "%"}, {"measurement": "GI%", "setting": "[24]; SK-MEL-2, 10 μM", "value": 34, "unit": "%"}, {"measurement": "Growth Percent", "setting": "[24]; SK-MEL-2, 1.00E-5 Molar", "value": 66.01, "unit": "%"}, {"measurement": "GI%", "setting": "[25]; HCT-116, 10 μM", "value": 78, "unit": "%"}, {"measurement": "Growth Percent", "setting": "[25]; HCT-116, 1.00E-5 Molar", "value": 22.67, "unit": "%"}, {"measurement": "GI%", "setting": "[26]; OVCAR-3, 10 μM", "value": 66, "unit": "%"}, {"measurement": "Growth Percent", "setting": "[26]; OVCAR-3, 1.00E-5 Molar", "value": 34.15, "unit": "%"}, {"measurement": "GI%", "setting": "[27]; DU-145, 10 μM", "value": 50, "unit": "%"}, {"measurement": "Growth Percent", "setting": "[27]; DU-145, 1.00E-5 Molar", "value": 50.47, "unit": "%"}]}
